Laboratory results from patent publication US20050107474A1, “Pharmaceutical compositions for the treatment of infections of the respiratory system by pathogenic agents” (priority 2002, published 2005).
Values joined by “and” are separate entries in the source; they are usually repeats but may differ in a detail not shown here. Identical values can stand only once.

Columns and labels:
P. aeruginosa = conditions: Antimicrob. Agents Chemother., 35, 1258, (1991); cited from earlier work
S. aureus biofilm [1] = assay: Disruption of biofilm at initial maturation (5 hours); format: cell-based, Staphylococcus aureus; conditions: for disruption of biofilm formed after 5 hours (initial maturation): maximum concentration (8 mg/ml)
Experimental: (§1) The effects of NAC and TAPh on the biofilm produced by S. aureus were evaluated on four strains of the microorganism designated 1393, 1876, 1880 and 1890.
(§2) The biofilm adhering to the walls of the microplates was washed with PBS, suspended in 10% sarcosyl and measured spectrophotometrically at 492 nm.
(§3) The same technique was employed for calculating the residual quantity of biofilm after treatment with NAC alone and combined with TAPh on S. aureus. For this purpose, biofilms with two different degrees of maturity: initial (5 hours) and fully consolidated (48 hours) were exposed to suitable concentrations of NAC (from 8 mg/ml to 0.007 mg/ml) with added TAPh at the concentrations that can be reached in vivo in the pulmonary tree.

S. epidermidis = conditions: J. Ant. Chem., 39, 643, (1997); cited from earlier work
S. aureus [2] = assay: Viability (CFU/ml) of biofilm cells after sonication and seeding; format: cell-based, Staphylococcus aureus; conditions: maximum concentration, range over strains
Experimental: as §1
At the same time, the biofilms thus treated were submitted to sonication in order to disperse the cells that were still adhering, and these were seeded on rich medium after suitable dilution for calculating the vital elements surviving the various treatments.

S. aureus [3] = assay: Bacterial growth in broth culture with NAC; format: cell-based, Staphylococcus aureus; conditions: NAC up to maximum concentration 8 mg/ml
S. aureus biofilm [4] = assay: Biofilm formation in polystyrene microplates, crystal violet, spectrophotometric at 492 nm; format: cell-based, Staphylococcus aureus; conditions: for reduction of the biofilm (formation) / decrease of biofilm production: NAC 8 mg/ml, 24 hours
Experimental: as §1
Formation of the biofilms was quantified spectrophotometrically in polystyrene microplates with U-well geometry (Corning Incorporated, New York).
In more detail, the effect of NAC on biofilm formation was evaluated as follows: overnight broth cultures in tryptic soy broth (TSB) with glucose added (0.25%) (TSBG) were diluted 1:100 in TSBG. Appropriate dilutions of NAC at concentrations varying respectively from 8 mg/ml to 0.007 mg/ml were added to the suspensions (100 μl each). After incubation at 37° C. for 24 hours, the microplates were washed three times with 10 mM phosphate buffer pH 7.4 (PBS), treated with Bouin fixative and then stained with crystal violet (0.01%).
as §2

S. aureus biofilm [5] = assay: Disruption of fully consolidated biofilm (48 hours); format: cell-based, Staphylococcus aureus
Experimental: as §1, §2, §3

Q: Which disruption of biofilms (P. aeruginosa) does the source give for `CC(=O)N[C@@H](CS)C(=O)O` [NAC, N-acetyl-cysteine] here?
A: ability to disrupt biofilms

Q: And the “reduction values with NAC on its own, initial biofilms (range over strains, restated)” value (S. aureus biofilm [1]; NAC alone, first range printed)?
A: 32.5-65.5%

Q: What about the “disruption of biofilm formed after 5 hours (initial maturation)” value (shortened to “disruption of biofilm formed”) (S. aureus biofilm [1]; S. aureus 1876) of the same molecule?
A: 32.5%

Q: And the “disruption of biofilm formed” value (S. aureus biofilm [1]; strain 1393)?
A: 61.1%

Q: What about the “disruption of biofilm formed” value (S. aureus biofilm [1]; strain 1880) of the same molecule?
A: 57.3%

Q: And the “disruption of biofilm formed” value (S. aureus biofilm [1]; strain 1890)?
A: 58.6%

Q: And the “inhibition of biofilm formation” value (S. epidermidis)?
A: inhibit their formation

Q: And the “reduction in colony forming units per ml (CFU/ml)” value (S. aureus [2]; cells of mature (consolidated) biofilms)?
A: 33.7% to 70.6

Q: What about the “reduction in colony forming units per ml (CFU/ml)” value (S. aureus [2]; cells of the youngest biofilms (initial maturation)) of the same molecule?
A: 33.7% to 91

Q: What about the “visible changes in bacterial growth” value (S. aureus [3]) of the same molecule?
A: did not cause visible changes in bacterial growth

Q: What about the “reduction of the biofilm (formation)” value (S. aureus biofilm [4]; S. aureus 1393) of the same molecule?
A: 68.2%

Q: What about the “decrease of biofilm production” value (S. aureus biofilm [4]; S. aureus 1876) of the same molecule?
A: 30.3%

Q: And the “decrease of biofilm production” value (S. aureus biofilm [4]; S. aureus 1880)?
A: 41.1%

Q: What about the “reduction of the biofilm (formation)” value (S. aureus biofilm [4]; S. aureus 1890) of the same molecule?
A: 56.3%

Q: What about the glycocalyx production (S. aureus biofilm [4]; all the strains) of the same molecule?
A: inhibited glycocalyx production in all the strains

Q: And the “reduction values with NAC on its own, fully consolidated biofilms (range over strains, restated)” value (S. aureus biofilm [5]; NAC alone, second range printed)?
A: 58.1-62%

Q: What about the “reduction of mucopolysaccharide material of fully consolidated biofilms” value (S. aureus biofilm [5]; maximum concentration, four strains assayed, one value each, strain per value not given) of the same molecule?
A: 62% and 60.5% and 58.1% and 65.5%
